Results as given in US20130005810A1, “ORGANIC UNCOUPLING AGENTS” (RHODIA OPERATIONS, priority 2009, published 2013).

Tested on: bacterial strain Shinella granuli
Assay: Oxitop respirometric screening test (oxygen overconsumption as signature of uncoupling, 7 days)
Assay type: cell-based
Conditions: for uncoupling percentage relative to the control: Shinella granuli, 7 days
Description: In order to evaluate the reduction in sludge production by a chemical uncoupling agent in screening, the respirometric technique of Oxitop® cylinders is used. Bacterial strains known and representative of activated sludge (since they are isolated in aeration tanks) are inoculated into a culture medium in the presence of a certain concentration of the uncoupling agent over a period of 7 days. By comparing the respiration of treated inocula comparatively with controls (untreated inocula), it is possible to measure oxygen overconsumption, a physiological signature of the uncoupling effect on bacteria.
The method and the apparatus used are those described in Example 3 of WO 2004/113236 cited as a reference.
The results obtained in a screening test on the bacterial strain Shinella granuli, are gathered in Table 1 below. They are expressed as an uncoupling percentage relative to the control (not comprising any uncoupling agent). THPS (tetrakis(hydromethyl)phosphonium sulfate) produces uncoupling effects in oxitop® respirometry tests of 16±8% for a rated concentration of 3 ppm, the 95% confidence interval of THPS in terms of uncoupling factor being, […] from results obtained in 26 Oxitop® tests.

Row | Structure (SMILES) | uncoupling percentage relative to the control (0.1 ppm uncoupling agent) [%] | uncoupling percentage relative to the control (0.5 ppm uncoupling agent) [%] | uncoupling percentage relative to the control (1 ppm uncoupling agent) [%] | uncoupling percentage relative to the control (2 ppm uncoupling agent) | uncoupling percentage relative to the control (3 ppm uncoupling agent) | uncoupling percentage relative to the control (8 ppm uncoupling agent) | uncoupling percentage relative to the control (10 ppm uncoupling agent) | uncoupling percentage relative to the control (20 ppm uncoupling agent) [%] | uncoupling factor (concentration range between 2 and 20 ppm, summary drawn from Table 1) [%]
1 | C[N+](C)(C)CC(=O)[O-] [Glycine betaine, glycine betaine] | 5 | 18 | 0 | 20%-26% | 24%-25% | 20%-26% | 12-20% |  | 
2 | OCC(CO)(CO)CO [Pentaerythritol, pentaerythritol] |  | 2 | 8 |  | 19% |  |  | 22 | ~20
3 | COc1cc(C=O)ccc1O [Vanillin, vanillin] | 5 | 18 | 14 | 18%-25% | 15%-22% | 21%-21% | 18%-23% | 18 | 
